The values that follow come from patent US8690874B2, “Composition and process for bone growth and repair” (Zimmer Orthobiologics, Inc., priority 2000, dated 2014).

Where “and” joins values, the source holds several entries; their conditions need not be identical. Equal values may be shown once. Entries after “also recorded” stand apart in the source; their conditions may differ. Read-outs that look alike come from different tables or passages of the source.

In data set [1] the test system is subcutaneous rat implant model. The data set can be described thus: Subcutaneous rat implant model, collagen/GFm sponges supplemented with calcium phosphates (Example 3/5). It counts as in vivo. The following applies: for Average Mineral Mass / Average Explant Mass / Average Histology Score [0-5]: inter-animal average; for Average Mineral Mass: ash weight; for Average Explant Mass: collagen 7 mg + GFm 10 μg, additive 7 mg (50 wt. %); for Average Histology Score [0-5] / Histology score, Direct Comparison Averages [0-5]: scoring of Table 7; for Explant mass, Direct Comparison Averages / Mineral mass, Direct Comparison Average / Histology score, Direct Comparison Averages [0-5]: intra-animal comparison subset; for Explant mass, Direct Comparison Δwt. % / Histology score, Direct Comparison [%] / Mineral mass, Direct Comparison Δwt. %: relative to intra-animal collagen/GFm control; for bone quality and maturity in histological sections: photomicrographs FIG. 15, H&E/Von Kossa, toluidine blue; for effect on explant and mineral mass: versus collagen controls / other compositions. The protocol:
The advantages of the rat model for product evaluation include an accelerated rate of bone induction. Visible evidence of mineralization appears in the implant within several days (˜10), with typical experiments lasting between 14 and 21 days. The testing protocol involved implantation of porous collagen (bovine tendon Type 1, 7 mg, 96 vol. % porosity) samples containing a natural mixture of bovine, osteoinductive proteins (GFm, 10 μg). […] Samples were implanted in four subcutaneous sites including the upper quadrants of the abdomen (sites 1, 2) and the upper quadrants of the dorsal thorax (sites 6, 7). The osteoinductive differences between controls and calcium phosphate supplemented samples [7 mg, 50 wt. %] were assessed using three standard test protocols: histological tissue analysis and mineral composition via x-ray and ash weight analysis (Intermedics Orthopedics/Denver, Inc. Histology protocol STM 009; Intermedics Orthopedics/Denver, Inc. Alkaline phophatase protocol STM 0024, 0026).
Samples were assessed in comparison to two different control sample populations, including: collagen sponges and collagen/GFm sponges supplemented with 50 wt % devitalized bone matrix (DVBM) additives. The collagen/GFm control samples were used as a reference for a baseline osteoinductive response. A calcium phosphate additive was considered detrimental if it either reduced the explant or mineral mass values or if it negatively influenced bone maturation. […] These samples were prepared as an alternative for demineralized bone matrix (DBM) additives. Demineralized bone matrix provides both an ideal osteoconductive matrix for cellular invasion and bone mineralization and a pooled concentration of osteoinductive proteins.
ANOVA was performed without data replications turning the analysis into an expanded pool Student-T test. Statistical significance was predicted using α<0.05. […] Compositions that had no significant influence on mass are indicated in plain text. Compositions that stimulated a statistically significant improvement in mass are indicated in bold text [Tables 5 and 6].
The quality and skeletal maturity of produced bone was assessed through histological microscopic analysis of thin, stained tissue sections. […] Thin sections (4 μm) from the explant midlines were obtained with a microtome. One section was stained with hematoxylin & eosin (H&E) and one was stained with toluidine blue to highlight important cellular details. The H&E sections were counterstained with silver nitrate (Von Kossa technique) to highlight mineralized tissue components. The histological sections were scored for quality and maturity using a scoring system, outlined in Table 7, previously developed by Sulzer Biologics according to STM-021. […]

Data set [2] in a line: pH buffering potential of calcium salts. It counts as physicochemical.
Data set [3] is described as follows: Equilibrium solubility of calcium and phosphate ions from calcium phosphate salts. The class given is physicochemical.
The mark [4] stands for this setting: equilibrium solubility of the salt.

On to hydroxyapatite [3.33CaO•P2O5 (HA-px)], for which, in data set [1], the “Average Mineral Mass” value is 19.8 mg; the “Average Explant Mass” value was 113.5 mg; the “Average Histology Score [0-5]” value is 1.4; the “Explant mass, Direct Comparison Averages” value is reported as 124.7 mg. In data set [1], the “Mineral mass, Direct Comparison Average” value amounted to 21.9 mg; the “Histology score, Direct Comparison Averages [0-5]” value turned out to be 2.0; the “Explant mass, Direct Comparison Δwt. %” value is reported as “+4.5% wt. %”; the “Histology score, Direct Comparison [%]” value is recorded as −26.7%. In data set [1], the “Mineral mass, Direct Comparison Δwt. %” value is given as “+74.3% wt. %”.

Consider `O=P([O-])([O-])[O-].O=P([O-])([O-])[O-].[Ca+2].[Ca+2].[Ca+2]` [3CaO•P2O5 (β-TCP), tricalcium phosphate], for which, in data set [1], the “Average Mineral Mass” value came to 8.1 mg; the “Average Explant Mass” value turned out to be 80.1 mg; the “Average Histology Score [0-5]” value came out at 1.3; the “Explant mass, Direct Comparison Averages” value stood at 71.6 mg. Moreover, in data set [1], the “Mineral mass, Direct Comparison Average” value amounted to 5.7 mg; the “Histology score, Direct Comparison Averages [0-5]” value is 1.3; the “Explant mass, Direct Comparison Δwt. %” value was −26.3% wt. %; the “Histology score, Direct Comparison [%]” value is −23.9%. Further, the “Mineral mass, Direct Comparison Δwt. %” value in data set [1] is on record as −31.6% wt. %.

hydroxyapatite [3.33CaO•P2O5 (HA-am)]: in data set [1], the “Average Mineral Mass” value was 26.5 mg and 29.4 mg; the “Average Explant Mass” value is 129.9 mg and 117.9 mg; the “Average Histology Score [0-5]” value is 1.3 and 1.4; the “Explant mass, Direct Comparison Averages” value was 120.3 mg and 140.6 mg. In data set [1], the “Mineral mass, Direct Comparison Average” value was 27.1 mg and 30.4 mg; the “Histology score, Direct Comparison Averages [0-5]” value is 1.2 and 1.7.

For the compound `O=C([O-])[O-].[Ca+2]` [CaCO3 (calcite), calcium carbonate], in data set [1], the “Average Mineral Mass” value came out at 7.9 mg; the “Average Explant Mass” value amounted to 67.4 mg; the “Average Histology Score [0-5]” value was 1.0; the “Explant mass, Direct Comparison Averages” value turned out to be 73.1 mg. Further, in data set [1], the “Mineral mass, Direct Comparison Average” value came out at 8.1 mg; the “Histology score, Direct Comparison Averages [0-5]” value is listed as 1.0; the “Explant mass, Direct Comparison Δwt. %” value was −28.0% wt. %; the “Histology score, Direct Comparison [%]” value is recorded as −58.3%. Further, the “Mineral mass, Direct Comparison Δwt. %” value in data set [1] was −3.2% wt. %.

For the compound “hydroxyapatite [3.33CaO.P2O5(OH)2 (Calcitek)]”, in data set [1], the “Explant mass, Direct Comparison Δwt. %” value was “+44.1 wt. %” and the “Mineral mass, Direct Comparison Δwt. %” value is “+279.6 wt. %”.

Turning to `O=P([O-])([O-])[O-].O=P([O-])([O-])[O-].[Ca+2].[Ca+2].[Ca+2]` [3CaO•P2O5 (α-TCP), tricalcium phosphate], in data set [1], the “Average Mineral Mass” value stood at 6.5 mg; the “Average Explant Mass” value is 39.5 mg; the “Average Histology Score [0-5]” value is given as 1.1; the “Explant mass, Direct Comparison Averages” value was found to be 58.7 mg. In addition, in data set [1], the “Mineral mass, Direct Comparison Average” value worked out at 9.4 mg; the “Histology score, Direct Comparison Averages [0-5]” value is listed as 1.3; the “Explant mass, Direct Comparison Δwt. %” value is listed as −42.9% wt. %; the “Histology score, Direct Comparison [%]” value is −35.1%. In data set [1], the “Mineral mass, Direct Comparison Δwt. %” value is recorded as −28.3% wt. %.

Take hydroxyapatite [Ca5(PO4)3(OH) (HA)]: the “pH (buffering potential of the salt)” value in data set [2] is ~8.5 and ~9. Moreover, the “pH (buffering potential of the salt)” value in data set [2] (listed as Hydroxyapatites) is reported as about 8. Besides, the “Insoluble fraction [200 mg/cc]” value in data set [3] (200 mg/cc) is listed as 99.9999 wt. %. Also, in data set [3] (setting [4]), the “Equilibrium [Ca^2+]” value is 2.2 µM and the “Equilibrium [PO4^3−]” value came to 1.3 µM. Also, in data set [1], the “bone quality and maturity in histological sections” value is on record as “negative effect on bone ossicle maturation; also recorded: comparatively reduced”; the “effect on explant and mineral mass” value was “appreciably enhanced”.

Consider `O=P([O-])([O-])OP(=O)([O-])[O-].[Ca+2].[Ca+2]` [2CaO•P2O5•2H2O (CP), calcium pyrophosphate], for which, in data set [1], the “Average Mineral Mass” value is 20.8 mg; the “Average Explant Mass” value was determined as 126.2 mg; the “Average Histology Score [0-5]” value stood at 2.3; the “Explant mass, Direct Comparison Averages” value was 170.3 mg. Also, in data set [1], the “Mineral mass, Direct Comparison Average” value came to 31.5 mg; the “Histology score, Direct Comparison Averages [0-5]” value is on record as 2.3; the “bone quality and maturity in histological sections” value is given as “comparatively reduced in maturity but were greater than control samples”; the “Explant mass, Direct Comparison Δwt. %” value is “+99.6% wt. %”. Moreover, in data set [1], the “Histology score, Direct Comparison [%]” value is “+11.1%”; the “Mineral mass, Direct Comparison Δwt. %” value is recorded as “+163.0% wt. %”; the “effect on explant and mineral mass” value is “appreciably enhanced; also recorded: significantly enhanced explant and mineral mass values”. Moreover, the “improvement in histological score” value in data set [1] (intra-animal, relative to collagen control) is “+163 wt. %”. Besides, in data set [1] (listed as 2CaO.P2O5), the “Explant mass, Direct Comparison Δwt. %” value is given as “+99.6 wt. %” and the “Mineral mass, Direct Comparison Δwt. %” value is given as “+263 wt. %”. Besides, the “histological score / osteoinductive performance, statistical comparison” value in data set [1] (α<0.05) is “Statistically superior improvements in histological score”.

On to `O=C([O-])[O-].[Ca+2]` [CaCO3 (aragonite), calcium carbonate], for which, in data set [1], the “Average Mineral Mass” value amounted to 10.4 mg; the “Average Explant Mass” value was determined as 69.4 mg; the “Average Histology Score [0-5]” value was found to be 1.0; the “Explant mass, Direct Comparison Averages” value is 88.6 mg. Further, in data set [1], the “Mineral mass, Direct Comparison Average” value amounted to 14.5 mg; the “Histology score, Direct Comparison Averages [0-5]” value was 1.0; the “Explant mass, Direct Comparison Δwt. %” value is listed as −27.3% wt. %; the “Histology score, Direct Comparison [%]” value was −63.9%. In data set [1], the “Mineral mass, Direct Comparison Δwt. %” value was “+3.8% wt. %”.

Turning to `O=C([O-])[O-].[Ca+2]` [calcium carbonates, calcium carbonate], the “bone quality and maturity in histological sections” value in data set [1] is on record as “comparatively reduced”.
